From publication PMC6272185 (Molecules, 2015)
Converted amounts (≈) assume the structure as drawn. Read-outs that look alike come from different tables or passages of the source.

Legend:
[1] = test system: NO production by LPS-stimulated RAW 264.7 macrophages; assay: Inhibition of NO production by LPS-stimulated macrophages (Griess); format: cell-based, murine; details: mean ± SD, n = 3
[2] = Macrophage cytotoxicity, LDH release assay; format: cell-based, murine; details: mouse, RAW 264.7 macrophages stimulated with LPS; LPS-stimulated RAW 264.7, LDH release; mean ± SD, n = 3
M. bovis BCG = assay: microbe, parasite or virus in culture; format: cell-based, Mycobacterium bovis BCG; details: Mycobacterium tuberculosis variant bovis BCG, BCG, 168 h; for MIC50: read-out: MIC50 M. bovis BCG; for MIC90: read-out: MIC90 M. bovis BCG
[3] = test system: TNF-α production by LPS-stimulated RAW 264.7 macrophages; assay: Inhibition of TNF-α production by LPS-stimulated macrophages (ELISA); format: cell-based, murine; details: for IC50: Mus musculus, read-out: IC50 TNF-α
[4] = test system: IL-1β production by LPS-stimulated RAW 264.7 macrophages; assay: Inhibition of IL-1β production by LPS-stimulated macrophages (ELISA); format: cell-based, murine; details: for IC50: Mus musculus, RAW264.7, 24 h, read-out: IC50 IL-1β
Procedure: (§1) Murine RAW 264.7 macrophage cell line (American Type Culture Collection, Manassas, VA, USA), was cultured in Dulbecco’s modified Eagle’s medium (DMEM-F12) supplemented with 10% Fetal Bovine Serum (FBS) and gentamicin (50 µg/mL) in 5% CO2 atmosphere at 37 °C. For experiments, the cells were seeded in 96-well plates (1 × 10^5 cells/well) and incubated for 24 h at 37 °C. For macrophage stimulation, the cell cultures were treated with LPS (1 µg/mL) and incubated for additional 24 h in the presence or absence of the chalcone samples (samples 1–41) that were used at concentrations of 100, 20, 4 and 0.8 µg/mL. In some experiments, a nitric oxide (NO) inhibitor, L-NMMA (20 μg/mL), was used as a positive control of NO inhibition, and a non-steroidal anti-inflammatory drug indomethacin, known to inhibit production of prostaglandins, was used as a positive control of PGE2 inhibition.
(§2) The frozen culture supernatants samples were thawed and immediately analyzed using commercially available enzyme-linked immunosorbent assay (ELISA) kits to measure TNF-α, IL-1β (BD Biosciences) and PGE2 (R&D Systems, Minneapolis, MN, USA), according to the manufacturer’s instructions. Standard curves for each mediator were generated using reference cytokine concentrations supplied by the manufacturer. Nitric oxide (NO) generation was assessed by the Griess method to measure nitrites, which are stable breakdown NO products.

[5] = test system: PGE2 production by LPS-stimulated RAW 264.7 macrophages; assay: Inhibition of PGE2 production by LPS-stimulated macrophages (ELISA); format: cell-based, murine; details: Mus musculus, RAW264.7, 24 h, read-out: IC50 PGE2
Procedure: as §1, §2

M. tuberculosis H37Rv = assay: microbe, parasite or virus in culture; format: cell-based, Mycobacterium tuberculosis; details: Mycobacterium tuberculosis
[6] = Mus musculus, RAW264.7, 24 h, LPS (1 µg/mL)-stimulated RAW 264.7, 24 h, read-out: IC50 NO
[7] = RAW264.7, LPS (1 µg/mL)-stimulated RAW 264.7, 24 h, mean ± SD, n = 3
[8] = LPS (1 µg/mL)-stimulated RAW 264.7, 24 h, read-out: IC50 NO
[9] = Mus musculus, RAW264.7, 24 h, read-out: IC50 NO, LPS (1 µg/mL)-stimulated RAW 264.7, 24 h
[10] = H37RV, 120 h, read-out: MIC50 M. tuberculosis H37Rv
[11] = Table 5, same values as M. tuberculosis H37Rv in Table 3, read-out: MIC50

Row | Structure (SMILES) | IC50 [1, 6] | IC50 [2] | MIC50 (M. bovis BCG) | MIC90 (M. bovis BCG) | IC50 [3, 7] | IC50 [1, 8] | IC50 [1, 9] | IC50 [4] | IC50 [5] | MIC90 (M. tuberculosis H37Rv; H37RV, 120 h) | MIC50 (M. tuberculosis H37Rv; [10]) | MIC50 (M. tuberculosis H37Rv; [11]) | IC50 ([3]; RAW264.7, 24 h) | inhibition of IL-1β ([4]; LPS-stimulated RAW 264.7) | inhibition of TNF-α ([3]; LPS-stimulated RAW 264.7)
1 | COc1ccc(/C=C/C(=O)c2ccccc2Cl)cc1 [Chalcone 34] | > 367 µM | > 367 µM | > 367 µM | > 367 µM | > 367 µM |  |  |  |  |  |  |  |  |  | 
2 | Cc1ccc(C(=O)/C=C/c2ccccc2)cc1 [Chalcone 16] | > 450 µM | > 450 µM | > 450 µM | > 450 µM | > 450 µM |  |  |  |  |  |  |  |  |  | 
3 | O=C(/C=C/c1ccc2c(c1)OCO2)c1ccc(Br)cc1 [Chalcone 12] |  | > 302 µM | 84.9 ± 4.7 µM (≈ 28.1 µg/mL) | 229.6 ± 2.2 µM (≈ 76 µg/mL) | > 302 µM | 19.6 ± 3.3 µM | < 21 µM | > 302 µM | 50.3 ± 0.3 µM |  |  |  |  |  | 
4 | Cc1ccc(C(=O)/C=C/c2ccccc2Cl)cc1 [Chalcone 23] | > 390 µM | > 390 µM | > 390 µM | > 390 µM | > 390 µM |  |  |  |  |  |  |  |  |  | 
5 | COc1ccc(/C=C/C(=O)c2ccc(Br)cc2)cc1OC [Chalcone 14] | 58.9 ± 6.8 µM | > 288 µM | > 288 µM | > 288 µM | > 288 µM |  |  |  |  |  |  |  |  |  | 
6 | COc1ccc(/C=C/C(=O)c2ccc(Br)cc2)cc1 [Chalcone 13] | 52.9 ± 3.6 µM | > 315 µM | 221 ± 3.6 µM (≈ 70 µg/mL) | > 315 µM | > 315 µM |  |  |  |  |  |  |  |  |  | 
7 | COc1ccc(C(=O)/C=C/c2ccc([N+](=O)[O-])cc2)cc1 [Chalcone 40] |  | > 353 µM | 14.5 ± 3.1 µM (≈ 4.11 µg/mL) | > 353 µM | > 353 µM | 13.5 ± 5.5 µM | < 21 µM | > 353 µM | > 413 µM | 352 ± 5.9 µM (≈ 99.7 µg/mL) | 131.7 ± 1.3 µM (≈ 37.3 µg/mL) | 131.7 ± 1.3 µM (≈ 37.3 µg/mL) |  |  | 
8 | COc1ccc(/C=C/C(=O)c2ccccc2)cc1 [Chalcone 6] |  | > 420 µM |  |  |  |  | > 420 µM |  |  |  |  |  | > 420 µM |  | 
9 | Cc1ccc(C(=O)/C=C/c2ccc(F)cc2)cc1 [Chalcone 17] | 30.8 ± 4.5 µM | 290 ± 4.3 µM | 61.5 ± 7.6 µM (≈ 14.8 µg/mL) | 388 ± 7.3 µM (≈ 93.3 µg/mL) | > 416 µM |  |  | > 416 µM | > 417 µM | > 416 µM | 63.8 ± 6.2 µM (≈ 15.3 µg/mL) | 63.8 ± 6.2 µM (≈ 15.3 µg/mL) |  |  | 
10 | O=C(/C=C/c1ccc([N+](=O)[O-])cc1)c1ccc(Br)cc1 [Chalcone 38] | > 301 µM | > 301 µM | 97.4 ± 4.2 µM (≈ 32.4 µg/mL) | 221 ± 5.6 µM (≈ 73.3 µg/mL) | > 301 µM |  |  |  |  |  |  |  |  |  | 
11 | O=C(/C=C/c1ccc([N+](=O)[O-])cc1)c1ccccc1Cl [Chalcone 41] |  | > 348 µM | 30.5 ± 4.7 µM (≈ 8.77 µg/mL) | 247 ± 7.2 µM (≈ 71 µg/mL) | 68.5 ± 3.3 µM | 11.2 ± 5 µM | < 21 µM | 13.5 ± 3.9 µM | 67.4 ± 2.2 µM | 275 ± 6.7 µM (≈ 79.2 µg/mL) | 82.1 ± 4.3 µM (≈ 23.6 µg/mL) | 82.1 ± 4.3 µM (≈ 23.6 µg/mL) |  | potent inhibitors | strongly inhibit
12 | COc1ccc(/C=C/C(=O)c2ccc(C)cc2)cc1OC [Chalcone 22] | > 354 µM | > 354 µM | > 354 µM | > 354 µM | > 354 µM |  |  |  |  |  |  |  |  |  | 
13 | O=C(/C=C/c1ccc2c(c1)OCO2)c1ccccc1Cl [Chalcone 35] | 160 ± 4.7 µM | > 349 µM | > 349 µM | > 349 µM | > 349 µM |  |  |  |  |  |  |  |  |  | 
14 | Cc1ccc(C(=O)/C=C/c2ccc(Cl)cc2)cc1 [Chalcone 18] | 150 ± 3.8 µM | 304 ± 4.2 µM | 71.3 ± 4.8 µM (≈ 18.3 µg/mL) | 323 ± 7.1 µM (≈ 83 µg/mL) | > 390 µM |  |  |  |  |  |  |  |  |  | 
